Data reported in ChEMBL document CHEMBL1153646, “Peptidomimetic inhibitors of p21ras farnesyltransferase: Hydrophobic functionalization leads to disruption of p21ras membrane association in whole cells” (Bioorg Med Chem Lett, 1994).
Active and inactive are the calls of the source. The calls are words filed in the database; no cut-off is given here.

Assays:
[1] = biological target: Protein farnesyltransferase (Homo sapiens, UniProt P49354+P49356); test: In vitro inhibition of [3H]FPP incorporation into recombinant P21ras of NIH3T3 cells by farnesyl transferase; type: cell-based
[2] = biological target: Protein farnesyltransferase (Mus musculus) (UniProt Q61239+Q8K2I1); test: In vivo inhibition of p21ras-farnesyl transferase in NIH3T3 cells (No inhibition); type: functional

| Compound | IC50 [1] [µM] | inhibition [2] |
| --- | --- | --- |
| COC(=O)[C@H](CCSC)NC(=O)c1cccc(CNC(=O)[C@H](CSC(=O)OCc2ccccc2)NC(=O)OCc2ccccc2)c1 | 100 |  |
| CSCC[C@H](NC(=O)c1cccc(CNC(=O)[C@H](CS)NC(=O)OCc2ccccc2)c1)C(=O)O | 14 | inactive |
| COC(=O)[C@H](CCSC)NC(=O)c1cccc(CNC(=O)[C@@H](N)CS)c1 | 18 |  |

More lines, in order of falling IC50 [1], values ahead:

| IC50 [1] [µM] | inhibition [2] | Compound |
| --- | --- | --- |
| 100 | inactive | COC(=O)[C@H](CCSC)NC(=O)c1cccc(CNC(=O)[C@H](CS)NC(C)=O)c1 |
| 90 | inactive | CC[C@@H](C)[C@H](NC(=O)[C@@H](NC(=O)[C@H](CSC(=O)OCc1ccccc1)NC(=O)OCc1ccccc1)C(C)C)C(=O)N[C@@H](CCSC)C(=O)OC |
| 0.38 | inactive | CSCC[C@H](NC(=O)c1cccc(CNC(=O)[C@@H](N)CS)c1)C(=O)O |
| 0.34 |  | CC[C@H](C)[C@H](NC(=O)[C@@H](NC(=O)[C@@H](N)CS)C(C)C)C(=O)N[C@@H](CCSC)C(=O)O |
